In general, IC50 refers to the concentration needed to halve the response being measured. A higher IC50 goes with a need for much substance.

In the test the target is T1, Calpain-2 catalytic subunit (Ovis aries, UniProt A8IF71).
T1 sequence (A8IF71 whole entry): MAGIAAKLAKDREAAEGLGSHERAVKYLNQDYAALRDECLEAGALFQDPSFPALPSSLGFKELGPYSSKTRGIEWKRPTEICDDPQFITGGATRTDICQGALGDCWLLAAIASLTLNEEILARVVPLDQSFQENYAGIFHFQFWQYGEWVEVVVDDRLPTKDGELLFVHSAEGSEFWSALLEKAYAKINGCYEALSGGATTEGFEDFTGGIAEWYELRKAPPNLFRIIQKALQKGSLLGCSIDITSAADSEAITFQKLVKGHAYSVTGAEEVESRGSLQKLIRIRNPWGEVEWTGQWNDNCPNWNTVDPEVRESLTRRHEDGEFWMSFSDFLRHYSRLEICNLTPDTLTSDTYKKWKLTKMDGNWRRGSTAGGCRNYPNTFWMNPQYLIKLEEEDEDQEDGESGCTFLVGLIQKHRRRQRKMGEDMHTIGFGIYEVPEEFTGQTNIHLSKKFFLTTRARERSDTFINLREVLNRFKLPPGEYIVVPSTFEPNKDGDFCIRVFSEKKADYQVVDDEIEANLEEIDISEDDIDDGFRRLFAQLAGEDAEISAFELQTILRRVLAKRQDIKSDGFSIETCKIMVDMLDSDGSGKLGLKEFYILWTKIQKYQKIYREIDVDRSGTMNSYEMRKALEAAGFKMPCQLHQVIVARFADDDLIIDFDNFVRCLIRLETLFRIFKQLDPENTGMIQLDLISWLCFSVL
In words: BODIPY Fluorescent Microplate Assay. Particulars: pH 7.5; 25 °C. The method, then:
Calpain inhibition assays were performed in 96-well black plates. The reaction was initiated by the addition of substrate solution. The progress of the reaction was followed for 10 min in a (BMG) Fluorostar with excitation at 485 nm and emission at 530 nm. The percentage inhibition was determined as […]. The reported IC50 values are the average of triplicate determinations.
Compound `CC(C)C[C@@H](C=O)NC(=O)[C@@H](NC(=O)c1cccs1)C(C)C` [(2S)-3-methyl-N-[(2S)-4-methyl-1-oxopentan-2-yl]-2-(thiophen-2-ylformamido)butanamide] registered an IC50 of 100 nM.

Regarding `CC(C)C[C@@H](C=O)NC(=O)[C@@H](NC(=O)c1ccc(C=O)o1)C(C)C` [(2S)-2-[(5-formylfuran-2-yl)formamido]-3-methyl-N-[(2S)-4-methyl-1-oxopentan-2-yl]butanamide], it took 100 nM to reach half-maximal inhibition (IC50).

On to `CC(C)C[C@@H](C=O)NC(=O)[C@@H](NC(=O)c1cc(C=O)c[nH]1)C(C)C` [(2S)-2-[(4-formyl-1H-pyrrol-2-yl)formamido]-3-methyl-N-[(2S)-4-methyl-1-oxopentan-2-yl]butanamide], for which the 50% inhibitory concentration (IC50) was 100 nM.

For the origin of these results see BindingDB's records for doi:10.1016/j.bmc.2008.05.048 (University of Canterbury, 2008).
